This note sets out measurements from patent publication US20140038953A1, “COMPOSITIONS AND METHODS FOR CARDIOVASCULAR DISEASE” (THE GENERAL HOSPITAL CORPORATION, priority 2011, published 2014).

Data set [1] concerns Wnt3a gene expression. In words: Aortic Wnt3a gene expression in MGP−/− mice. It is filed as in vivo. The conditions noted are these: 2.5 mg/kg/day IP day 1-28. The method, then: Total cellular RNA from either snap frozen tissues or cultured cells was extracted by the Phenol/guanidine method as described. (Chomczynski, P. & Sacchi, N. Single-step method of RNA isolation by acid guanidinium thiocyanate-phenol-chloroform extraction. Anal Biochem 162, 156-159 (1987).) cDNA was synthesized using Moloney murine leukemia virus reverse transcriptase (Promega, Madison, Wis., USA).
MGP−/− mice were treated with intraperitoneal (IP) injections of either vehicle or compound 13 at 2.5 mg/kg/day from day 1-28. At day 28, aortas were harvested for both histology and RNA isolation. […] To further quantify aortic calcium, a fluorescent bisphosphonate agent that specifically binds to hydroxyapatite (OsteoSense 680 nm, Perkin Elmer) was used. (Aikawa E, et al. Multimodality molecular imaging identifies proteolytic and osteogenic activities in early aortic valve disease. Circulation. 2007; 115(3):377-386 and Zaheer A, et al. In vivo near-infrared fluorescence imaging of osteoblastic activity. Nature biotechnology. 2001; 19(12):1148-1154.) MGP−/− mice at 27 days of age treated with vehicle or compound 13 received OsteoSense via tail vein, and 24 h later, aortas were harvested for imaging. […]

Data set [2] has as its system LDLR−/− mice. In words: Vascular calcification in LDLR−/− mice on high fat diet (Osteosense, Alizarin red). It is filed as in vivo. The conditions noted are these: high fat diet 20 weeks, 2.5 mg/kg ip daily, vs vehicle. The method, then:
Fluorescence reflectance imaging (FRI), was performed as previously described. (Aikawa, E., et al. Osteogenesis associates with inflammation in early-stage atherosclerosis evaluated by molecular imaging in vivo. Circulation 116, 2841-2850 (2007); and Aikawa, E., et al. Multimodality molecular imaging identifies proteolytic and osteogenic activities in early aortic valve disease. Circulation 115, 377-386 (2007).) Animals received 150 μl of OsteoSense 680 and 150 μl of ProSense 750 via tail vein injection 24 hours before euthanasia. After dissection, aortae were subjected to ex vivo near infrared fluorescence reflectance imaging using an Odyssey Imaging System (LI-COR Biotechnology, Lincoln, Nebr.), with integrated signal intensities determined for regions of interest using software version 3.0.16.
Aortas were either immediately embedded and cryopreserved using optimal cutting-temperature medium (Sakura Tissue-Tek, Zoeterwoude, The Netherlands) or fixed in paraformaldehyde and embedded in parafin. The presence of calcification was determined by staining tissue sections with Alizarin red or Von Kossa. Lipid accumulation in tissue sections was visualized by staining with Oil Red O. Liver sections were prepared from paraformaldehyde-fixed tissue and stained with hematoxylin and eosin. […]

The nature of data set [3]: Body weight, food intake and bone mineral density in LDLR−/− mice. It is filed as in vivo. The conditions noted are these: 2.5 mg/kg ip daily, vs vehicle.
The target in data set [4] is T1, HMG-CoA reductase (Homo sapiens, UniProt P04035).
T1 construct: purchased Sigma-Aldrich CS1090
T1 sequence (P04035 426-888 limits assumed): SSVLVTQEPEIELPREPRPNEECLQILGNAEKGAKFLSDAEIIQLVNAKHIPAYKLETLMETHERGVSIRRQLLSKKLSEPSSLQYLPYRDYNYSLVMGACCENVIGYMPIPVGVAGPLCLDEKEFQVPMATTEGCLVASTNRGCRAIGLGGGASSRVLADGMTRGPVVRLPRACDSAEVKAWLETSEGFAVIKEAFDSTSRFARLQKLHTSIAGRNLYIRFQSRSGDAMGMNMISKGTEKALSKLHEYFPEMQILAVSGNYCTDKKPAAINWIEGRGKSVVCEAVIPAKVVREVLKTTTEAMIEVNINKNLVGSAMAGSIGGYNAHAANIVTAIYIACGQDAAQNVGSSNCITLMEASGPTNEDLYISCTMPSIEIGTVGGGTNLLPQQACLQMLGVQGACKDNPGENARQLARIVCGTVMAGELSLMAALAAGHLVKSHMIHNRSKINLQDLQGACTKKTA
The data set is described as follows: HMG-CoA reductase activity assay. It is filed as biochemical. The conditions noted are these: compound 13 at 50 nM and 100 nM. From the text: Enzyme activity was quantified using a commercially available Assay Kit (CS1090 HMG-CoA Reductase Kit, Sigma-Aldrich, St. Louis, Mo.)

Entries after “also recorded” stand apart in the source; their conditions may differ.

Regarding `c1ccc2c(-c3cnn4cc(-c5ccc(N6CCNCC6)cc5)cnc34)ccnc2c1` [Compound 13, 4-[6-(4-piperazin-1-ylphenyl)pyrazolo[1,5-a]pyrimidin-3-yl]quinoline], the “reduction in aortic Wnt3a gene expression” value in data set [1] is greater than 5 fold. Moreover, the “vascular calcification / osteogenic activity (fluor-labeled bisphosphonate uptake, Alizarin red)” value is reported as “significantly less abundant; also recorded: reduced vascular calcification throughout the aortae; also recorded: severely diminished evidence of osteogenesis” in data set [2] and “can reduce vascular calcification” in data set [2] (listed as BMP inhibitor positive control compound). Further, the “food intake per gram body weight” value in data set [3] (6 weeks high fat diet, 2.5 mg/kg) was “did not differ significantly; also recorded: not associated with a reduction in body weight or food intake”. The body weight entry in data set [3] (20 weeks high fat diet, 2.5 mg/kg) was “did not differ significantly; also recorded: not associated with a reduction in body weight or food intake”. Also, in data set [3] (HFD 20 weeks), the “bone mineral density (femur, dual energy X-ray absorptiometry)” value is recorded as “did not differ”. In addition, the “HMG-CoA reductase enzyme activity in vitro” value in data set [4] is listed as “did not inhibit; also recorded: lack of impact”.
